This experiment deals with human colon cancer cell colo205. The experiment can be described thus: Anti-tumor efficacy on subcutaneously transplanted tumor of colo205 (Experimental Example 2). It counts as in vivo, Balb/c nude mice. The note with it: colo205, Day 19; 23-161 16.06 mg/kg tail vein; PCB 1.73 mg/kg oral. As for the experimental part:
1. Tumor strain and transplantation method of solid tumor: Human colon cancer cell colo205 was routinely preserved in the cell room of the State Key Laboratory of Molecular Oncology, Institute of Cancer Research, Chinese Academy of Medical Sciences. The tumor cells were taken out of liquid nitrogen, quickly thawed at 37° C., resuscitated and expanded, and then inoculated subcutaneously in the right axillary of healthy Balb/c mice. When the transplanted tumor grew to about 1.0 cm in diameter, the mice were sacrificed. Under aseptic conditions, the tumors were peeled off for passage by conventional methods.
2. Tumor inoculation and grouping: the tumor-bearing mice were sacrificed, the tumors were peeled off under aseptic condition and washed with normal saline several times, the necrotic tissues were removed, the well-growing tumor tissues were selected and divided into 2×2 mm tissue blocks, and the tumor tissue blocks were inoculated subcutaneously in the right axillary with a special metal trocar. After the transplantation of the tumor tissue blocks, administration in groups was carried out on the day of the transplantation.
3. […]
4. Data collection: the mice were weighed, the volume of tumors was measured, the mice were scarified on Day 19, the tumors were weighed, and the tumor inhibition rate (%) was calculated. […]

Each structure is given as a SMILES string.

Turning to `CC(=O)c1c(C)c2cnc(Nc3ccc(N4CCNCC4)cn3)nc2n(C2CCCC2)c1=O` [PCB, Palbociclib], the Tumor inhibition rate is given as −5.8% and the “Tumor weight (g) Average” value was 0.39 g.

The values are drawn from patent publication US20220105189A1, “POLYETHYLENE GLYCOL CONJUGATED DRUG AND ITS PREPARATION METHOD AND USE” (CHONGQING UPGRA BIOTECHNOLOGY CO., LTD., priority 2019, published 2022).
